Test results published in patent US20040224972A1, “Medicinal compositions for concomitant use as anticancer agent” (priority 2000, published 2004).
Counter-ions that a name gives are not always drawn. Like-named read-outs stand apart in the source and are kept apart here.

Assays:
[1] = Examination of gemcitabine hydrochloride, doxorubicin and taxol for synergistic effect (combined with E7070); conditions: used in the composition with E7070; no data given
[2] = test system: Human colon cancer strain HCT15 xenograft; experiment: Combined use of E7070 and MMC in human colon cancer HCT15 xenograft model; type: in vivo; conditions: E7070 QDx5, MMC 4.19 mg/kg/day QDx1; for Toxicity mRBW mean (minimum relative body weight): day of minimum in parentheses
Experimental: Human colon cancer strain HCT15 (purchased from ATCC) was cultured in RPMI1640 (containing 10% FBS) in a 5% CO2gas incubator until it attained about 80% confluence, and the cells were harvested with trypsin-EDTA and suspended in Hanks balanced solution to prepare a suspension of 5×10^7 cells/ml. 0.1 ml of the cell suspension was implanted subcutaneously in each nude mouse. When the average tumor volume reached 156 mm3 after the implantation, E7070 in a dose of 25 mg/kg/day and/or MMC in a dose of 4.19 mg/kg/day were administered either alone or in combination. E7070was intravenously administered once per day for 5 days (first to fifth days), while MMC was intravenously administered once (first day). After the administration was initiated, the longer and shorter diameters of the tumor were measured at the frequency of 2 times/week with digital calipers (Mitsutoyo), and the tumor volume was calculated according to the following equation.
(§1) Tumor volume=longer diameter of tumor (mm)×shorter diameter of tumor (mm)^2/2
(§2) The items for determination of antitumor effect were the following 2 items:

[3] = test system: Human colon cancer strain SW620 xenograft; experiment: Combined use of E7070 and CPT-11 in human colon cancer SW620 xenograft model; conditions: E7070 25 mg/kg/day QDx5, CPT-11 62.5 mg/kg/day Q4Dx3
Experimental: Human colon cancer strain SW620 (purchased from ATCC) was cultured in RPMI1640 (containing 10% FBS) in a 5% Co2gas incubator until it attained about 80% confluence, and the cells were harvested with trypsin-EDTA and suspended in Hanks balanced solution to prepare a suspension of 5×10^7 cells/ml. 0.1 ml of the cell suspension was implanted subcutaneously in each nude mouse. When the average tumor volume reached 226 mm^3 after the implantation, E7070 in a dose of 25 mg/kg/day and/or CPT-11 in a dose of 62.5 mg/kg/day were administered either alone or in combination. E7070 alone was intravenously administered once per day for 5 days (first to fifth days), while CPT-11 alone was intravenously administered 3 times (once every 4 days, that is, on the first, fifth and ninth days). Administration in combination was performed in 3 schedules, that is, simultaneous administration (E7070 on the first to fifth days; CPT-11 on the first, fifth and ninth days), previous administration of E7070 (E7070 on the first to fifth days; CPT-11 on the sixth, tenth and fourteenth days) and previous administration of CPT-11 (E7070 on the tenth to fourteenth days; CPT-11 on the first, fifth and ninth days). After the administration was initiated, the longer and shorter diameters of the tumor were measured at the frequency of 2 times/week with digital calipers (Mitsutoyo), and the tumor volume was calculated according to the following equation.
as §1, §2
(§3) Minimum relative tumor volume (mRTV): Minimum value of relative tumor volume (RTV*)
(§4) *: Tumor volume on n days after first treatment/tumor volume at the start of treatment.

[4] = test system: Human colon cancer strain HCT15 xenograft; conditions: E7070 30 mg/kg/day QDx5, CPT-11 75 mg/kg/day Q4Dx3; for Toxicity mRBW mean (minimum relative body weight): day of minimum in parentheses
Experimental: Human colon cancer strain HCT15 (purchased from ATCC) was cultured in RPMI1640 (containing 10%FBS) in a 5%CO2gas incubator until it attained about 80% confluence, and the cells were harvested with trypsin-EDTA and suspended in Hanks balanced solution to prepare a suspension of 5×10^7 cells/ml. 0.1 ml of the cell suspension was implanted subcutaneously in each nude mouse. When the average tumor volume reached 182 mm3 after the implantation, E7070 in a dose of 30 mg/kg/day and/or CPT-11 in a dose of 75 mg/kg/day were administered either alone or in combination. E7070was intravenously administered once per day for 5 days (first to fifth days), while CPT-11 was intravenously administered 3 times (once every 4 days, that is, on the first, fifth and ninth days). After the administration was initiated, the longer and shorter diameters of the tumor were measured at the frequency of 2 times/week with digital calipers (Mitsutoyo), and the tumor volume was calculated according to the following equation.
as §1, §2
Tx4: The time in days for tumor size to attain 4 folds of initial size.
as §3, §4

[5] = test system: Human breast cancer HBC4 xenograft; experiment: Combined use of E7070 and capecitabine in human breast cancer HBC4 xenograft model; type: in vivo, human cells in nude mouse; conditions: nude mice, s.c. HBC4; E7070 30.625 mg/kg/day (87.5% MTD) day 1-5; capecitabine 1.3125 mmol/kg/day (87.5% MTD) 14 days; combination: E7070 day 1-5, capecitabine day 6-19
Experimental: When the average tumor volume reached 114 mm3 after the implantation, E7070 in a dose of 30.625 mg/kg/day and/or capecitabine in a dose of 1.3125 mmol/kg/day were administered either alone or in combination.

[6] = test system: Human colon cancer strain Colo320D. M. xenograft; experiment: Combined use of E7070 and 5-FU in human colon cancer Colo320D. M. xenograft model; type: in vivo; conditions: for Toxicity Dead/Treated: E7070 30 mg/kg/day QDx5, 5-FU 60 mg/kg/day Q4Dx3
From the text: Human colon cancer strain Colo320D.

Row | Compound | antitumor activity when examined for synergistic effect [1] | Toxicity Dead/Treated [2] | Toxicity mRBW mean (minimum relative body weight) [2] | Toxicity Dead/Treated [3] | Toxicity mRBW mean (minimum relative body weight) ([3]; day of minimum in parentheses) | Toxicity Dead/Treated [4] | Toxicity mRBW mean (minimum relative body weight) [4] | Toxicity Dead/Treated [6] | further results
1 | COc1cccc2c1C(=O)c1c(O)c3c(c(O)c1C2=O)C[C@@](O)(C(=O)CO)C[C@@H]3O[C@H]1C[C@H](N)[C@H](O)[C@H](C)O1 [doxorubicin, 10-[(3-amino-2,3,6-trideoxy-α-L-lyxo-hexopyranosyl)oxy]-7,8,9,10-tetrahydro-6,8,11-trihydroxy-8-(hydroxyacetyl)-1-methoxy-(8S-cis)-5,12-naphthacenedione] | excellent antitumor activity |  |  |  |  |  |  |  | 
2 | NS(=O)(=O)c1ccc(S(=O)(=O)Nc2cccc3c(Cl)c[nH]c23)cc1 [E7070, N-(3-chloro-1H-indol-7-yl)-4-sulfamoylbenzenesulfonamide] |  | 0/6 | 0.93 (11) | 0/6 | 0.98 (8) | 0/6 | 0.92 (7) | 0/6 | mRTV mean ± S.D. (minimum relative tumor volume) ([3]; day of minimum in parentheses): 0.76 ± 0.42 (12); Tx4 [5]: 50.0 ± 8.1 days
3 | Cl.Nc1ccn([C@@H]2O[C@H](CO)[C@@H](O)C2(F)F)c(=O)n1 [gemcitabine hydrochloride, 2′-deoxy-2′,2′-difluoro-cytidine hydrochloride] | excellent antitumor activity |  |  |  |  |  |  |  | 
4 | CO[C@@]12[C@H](COC(N)=O)C3=C(C(=O)C(C)=C(N)C3=O)N1C[C@@H]1N[C@@H]12 [MMC, [1aS-(1aα,8β,8aα,8bα)]-6-amino-8-[[(aminocarbonyl)oxy]methyl]1,1a,2,8,8a,8b-hexahydro-8a-methoxy-5-methylazirino[2′,3′: 3,4]pyrrolo[1,2-a]indole-4,7-dione] |  | 0/6 | 0.99 (11) |  |  |  |  |  | 
5 | CCc1c2c(nc3ccc(OC(=O)N4CCC(N5CCCCC5)CC4)cc13)-c1cc3c(c(=O)n1C2)COC(=O)[C@]3(O)CC [CPT-11, [1,4′-Bipiperidine]-1′-carboxylicacid (S)-4,11-diethyl-3,4,12,14-tetrahydro-4-hydroxy-3,14-dioxo-1H-pyrano-[3′,4′:6,7]-indolizino[1,2-b]quinolin-9-yl ester Hydrochloride trihydrate] |  |  |  | 0/6 | 0.99 (8) | 0/6 | 0.94 (7, 10) |  | 
6 | O=c1[nH]cc(F)c(=O)[nH]1 [5-FU, 5-fluoro-2,4-(1H,3H)-pyrimidinedione] |  |  |  |  |  |  |  | 0/6 | Tx4 (days) mean ± S.D.: time in days for tumor size to attain 4 folds of initial tumor size ([6]; nude mice, s.c. Colo320D. M., E7070 30 mg/kg/day i.v. QDx5, 5-FU 60 mg/kg/day i.v. Q4Dx3, + simultaneous, → sequential): 10.0 ± 0.7 days
